The values that follow come from publication PMC11997989, “Design of Novel Mercapto-3-phenylpropanoyl Dipeptides as Dual Angiotensin-Converting Enzyme C–Domain-Selective/Neprilysin Inhibitors” (Journal of Medicinal Chemistry, 2025).

Series [1] deals with T1, nACE (Homo sapiens, UniProt P12821).
T1 construct: using purified recombinant single domain human ACE proteins and the human NEP ectodomain as previously described; made in house
Description: ACE inhibition assay, nACE (fluorogenic end point, Z-FHL). The settings on record: for reduction in affinity for nACE compared to omapatrilat: factor, from IC50 values; for IC50: ~1 nM nACE, 0.5 mM Z-FHL, mean ± standard error, n ≥ 2. Type of series: biochemical. The source says: (§1) For an accurate comparison of the inhibitor potencies across different enzymes and substrates, it is preferable to determine inhibition constants (Ki values). […] In the case of these new analogues, it was more challenging to accurately determine Ki values that could reliably be used to determine selectivity. […] This highlights the challenges in extrapolating data from in vitro assays to predict in vivo selectivity between targets. Furthermore, while comparing Ki values (assuming they can be accurately determined in vitro using available kinetic models) provides information on the relative binding affinities in the absence of substrate, in vivo the extent of enzyme inhibition will be affected by the relative concentrations and affinities of the physiological substrates competing for the binding sites. Given that accurate Ki values could not be calculated in a consistent manner for all compound-enzyme combinations, IC50 values are reported (Table 1).
(§2) Purified fully glycosylated human cACE and nACE proteins[36],[37] were used in fluorogenic end point activity assays utilizing Cbz-Phe-His-Leu (Z-FHL, Bachem Ltd., nACE Km = 600 μM; cACE Km = 60 μM) as the substrate as previously described.[32] Final reactions contained ∼1 nM nACE/cACE and 0.5 mM Z-FHL.

For series [2], the target named is T2, human NEP ectodomain (Homo sapiens, UniProt P08473).
T2 construct: A purified human NEP ectodomain was used in continuous activity assays; made in house
T2 sequence (P08473 52-750 limits assumed): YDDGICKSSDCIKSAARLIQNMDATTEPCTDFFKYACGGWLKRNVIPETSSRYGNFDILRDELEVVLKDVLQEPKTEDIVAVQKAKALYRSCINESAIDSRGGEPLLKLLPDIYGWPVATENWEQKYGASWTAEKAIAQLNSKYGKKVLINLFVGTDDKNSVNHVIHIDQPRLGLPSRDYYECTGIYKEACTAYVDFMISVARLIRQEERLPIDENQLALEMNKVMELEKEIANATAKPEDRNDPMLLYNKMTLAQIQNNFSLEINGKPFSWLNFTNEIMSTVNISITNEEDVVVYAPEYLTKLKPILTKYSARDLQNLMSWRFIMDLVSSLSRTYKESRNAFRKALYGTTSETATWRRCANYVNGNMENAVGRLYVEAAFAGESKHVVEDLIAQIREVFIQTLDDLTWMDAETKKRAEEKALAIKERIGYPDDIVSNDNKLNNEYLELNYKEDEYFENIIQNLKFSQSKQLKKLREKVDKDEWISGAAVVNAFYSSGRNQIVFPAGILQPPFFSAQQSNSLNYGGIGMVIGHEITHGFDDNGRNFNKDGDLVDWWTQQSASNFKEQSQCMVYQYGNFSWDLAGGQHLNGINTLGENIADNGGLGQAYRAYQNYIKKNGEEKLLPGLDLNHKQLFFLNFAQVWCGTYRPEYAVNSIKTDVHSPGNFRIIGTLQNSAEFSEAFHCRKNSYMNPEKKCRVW
Description: NEP inhibition assay (continuous fluorogenic activity assay). It counts as biochemical. The settings on record: for IC50: 0.4 nM NEP, mean ± standard error, n ≥ 2. The source says:
Furthermore, while comparing Ki values (assuming they can be accurately determined in vitro using available kinetic models) provides information on the relative binding affinities in the absence of substrate, in vivo the extent of enzyme inhibition will be affected by the relative concentrations and affinities of the physiological substrates competing for the binding sites.

For series [3], the target named is T3, cACE (Homo sapiens, UniProt P12821).
T3 construct: using purified recombinant single domain human ACE proteins and the human NEP ectodomain as previously described; made in house
T3 sequence (P12821 643-1222 limits assumed): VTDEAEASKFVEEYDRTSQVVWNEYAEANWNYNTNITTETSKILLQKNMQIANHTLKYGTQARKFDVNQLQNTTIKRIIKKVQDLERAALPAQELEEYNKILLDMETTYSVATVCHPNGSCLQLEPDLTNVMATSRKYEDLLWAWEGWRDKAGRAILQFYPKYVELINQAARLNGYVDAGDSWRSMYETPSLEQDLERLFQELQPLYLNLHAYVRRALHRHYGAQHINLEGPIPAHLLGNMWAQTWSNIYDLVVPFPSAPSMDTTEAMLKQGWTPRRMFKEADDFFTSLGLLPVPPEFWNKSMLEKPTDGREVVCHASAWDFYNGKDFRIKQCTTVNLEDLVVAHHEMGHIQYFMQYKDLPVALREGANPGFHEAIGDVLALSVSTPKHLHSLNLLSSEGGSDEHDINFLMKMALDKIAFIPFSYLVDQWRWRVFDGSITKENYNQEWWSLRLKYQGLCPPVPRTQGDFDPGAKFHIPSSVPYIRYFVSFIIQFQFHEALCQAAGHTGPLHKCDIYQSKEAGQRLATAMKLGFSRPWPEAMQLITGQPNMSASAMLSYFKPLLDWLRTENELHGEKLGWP
Description: ACE inhibition assay, cACE (fluorogenic end point, Z-FHL). It counts as biochemical. The settings on record: for C-selectivity factor: nACE IC50/cACE IC50; for IC50: ~1 nM cACE, 0.5 mM Z-FHL, mean ± standard error, n ≥ 2.
Excerpt: as §1, §2

The target in series [4] is T1, nACE. Description: Michaelis-Menten inhibition kinetics (mode of inhibition), nACE. It counts as biochemical. To be noted: enzyme and inhibitor pre-incubated 15 min; best-fitting model. The method, then:
(§3) page 9: curve. […] The apparent […]) obtained from this equation can then be converted to K i as for an IC50 value using Equation 1 provided the substrate competes with the inhibitor for the active site. (Et [[…] = V0(1 - i i ) Eq 2 2Et Where Vo is activity in absence of inhibitor, Vi is activity in presence of inhibitor, [I] is inhibitor concentration and Et is total enzyme concentration. Due to the slow binding of many protease inhibitors, inhibitors are typically pre-incubated with the enzyme prior to the addition of substrate to ensure that inhibition constants are measured under steady-state conditions. Accordingly, if an inhibitor forms a very tight complex with the enzyme resulting in a very slow off-rate, the inhibitor may not dissociate in the time of the experiment. Determining the Ki values for the mercaptoacyl inhibitors was challenging due to the chemical instability of the thiol group (although this was controlled by making up fresh stock before each experiment and diluting them immediately), the high potency, and the slow off rates observed in some cases, particularly for cACE. […] This is exemplified by the data for AD016. […] The K i values for the cACE determined in from this model were also inconsistent and were influence by the amount of enzyme used to the assay, again indicative of tight-binding conditions (Figure S1 C and D). […]

Series [5] has as its target T3, cACE. Description: Michaelis-Menten inhibition kinetics (mode of inhibition), cACE. Type of series: biochemical. The settings on record: enzyme and inhibitor pre-incubated 15 min; best-fitting model. The protocol:
as §3

For series [6], the target named is T3, cACE. Description: Jump dilution assay, cACE. Type of series: biochemical. The settings on record: 15 min pre-incubation, 20-fold dilution, activity immediately and ~3 h later, 1 mM Z-FHL. The method, then: (§4) Figure S2: Jump dilution experiment forAD016. A) Enzyme and inhibitor were pre-incubated for 15 min and then an aliquot of each was removed and diluted 20-fold in assay buffer. Activity assays were performed on both the undiluted (A and C) and diluted (B and D) enzyme-inhibitor mixes immediately and ~3h. later. Reaction was initiated with Z-FHL substrate (1mM final concentration). Final enzyme and inhibitor concentrations are […]
(§5) The Morrison equation was fitted to the same data but gave a poor fit when Et was constrained to the enzyme concentration used in the assay and an unrealistic Et if this value was left unconstrained (Figure S3 C & D). The obvious explanation for the high Et predicted by the model is that the inhibitor concentration is much lower than […]
(§6) the nACE data would imply the inhibitor concentration is ~350-fold lower than expected while the cACE data implies it is 40-fold lower than expected. The same inhibitor dilution series was […]
(§7) (1 picture or pasted object on this page, not shown here)
(§8) Figure S4: Morrison plots for the inhibition of cACE by compound AD016. Two assays with carried out in parallel. One using 1nM final enzyme concentration and the other using 5-fold less (0.2nM). The model was fitted without constraining the Et. The Et predicted from data set using the Morrison equation is indicated on the graph. […]

For the next series, the target named is T4, NEP (Homo sapiens, UniProt P08473).
T4 construct: A purified human NEP ectodomain was used in continuous activity assays; made in house
T4 sequence (P08473 52-750 limits assumed): as the sequence (P08473 52-750 limits assumed) above
Description: Michaelis-Menten inhibition kinetics (mode of inhibition), NEP. It counts as biochemical. To be noted: enzyme and inhibitor pre-incubated 15 min; best-fitting model.

Series [7] addresses T1, nACE. Description: Jump dilution assay, nACE. It counts as biochemical. The settings on record: 15 min pre-incubation, 20-fold dilution, activity immediately and ~3 h later, 1 mM Z-FHL. The method, then:
as §4, §5, §6, §7, §8

The target in series [8] is T2, human NEP ectodomain. Also noted: method as in PMID 35113565. To be noted: stated in discussion, LisW data previously reported; cited from earlier work.
In the next series the test system is patients. The settings on record: OCTAVE study, higher than the ACE inhibitor enalapril; cited from earlier work.
The mark [9] stands for this setting: 5 μM MCA-RPPGFSAFK(Dnp)-OH substrate.

T1 sequence (P12821 40-624 limits assumed): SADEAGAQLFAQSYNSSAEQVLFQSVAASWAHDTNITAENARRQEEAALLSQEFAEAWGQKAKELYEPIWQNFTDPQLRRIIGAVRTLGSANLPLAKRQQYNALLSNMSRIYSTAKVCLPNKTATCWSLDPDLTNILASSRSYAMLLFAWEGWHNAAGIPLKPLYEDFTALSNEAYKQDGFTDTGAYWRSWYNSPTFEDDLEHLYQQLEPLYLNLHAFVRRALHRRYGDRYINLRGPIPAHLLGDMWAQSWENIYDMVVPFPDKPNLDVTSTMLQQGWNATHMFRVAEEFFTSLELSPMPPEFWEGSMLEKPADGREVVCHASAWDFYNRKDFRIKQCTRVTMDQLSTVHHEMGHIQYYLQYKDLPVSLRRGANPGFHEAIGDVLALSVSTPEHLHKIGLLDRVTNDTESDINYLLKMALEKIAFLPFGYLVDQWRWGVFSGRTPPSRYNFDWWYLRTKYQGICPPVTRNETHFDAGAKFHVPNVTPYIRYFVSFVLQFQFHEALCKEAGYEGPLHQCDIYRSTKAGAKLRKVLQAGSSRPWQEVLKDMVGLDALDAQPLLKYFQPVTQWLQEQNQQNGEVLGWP

Broadly, the IC50 is the point on the concentration scale where inhibition reaches its midpoint. As to `O=C(NCC(=O)N1[C@@H](c2cccc(O)c2)CC[C@H]1C(=O)O)[C@@H](S)Cc1ccc(O)cc1` [AD014, (2S,5R)-5-(3-Hydroxyphenyl)-1-(((S)-3-(4-hydroxyphenyl)-2-mercaptopropanoyl)glycyl)pyrrolidine-2-carboxylic Acid], at nACE [1], the “reduction in affinity for nACE compared to omapatrilat” value is on record as about 10 and the IC50 is 0.02 ± 0.007 µM. Moreover, the IC50 against human NEP ectodomain [2] (setting [9]) amounted to 0.02 ± 0.01 µM. Also, the “reduction in affinity for cACE compared to omapatrilat” value on cACE [3] (factor, from IC50 values) is recorded as about 10. Moreover, the C-selectivity factor on cACE [3] came out at 2.
For `Cc1ccc([C@H]2CC[C@@H](C(=O)O)N2C(=O)CNC(=O)[C@@H](S)Cc2ccccc2)cc1` [AD015, (2S,5R)-1-(((S)-2-Mercapto-3-phenylpropanoyl)glycyl)-5-(p-tolyl)pyrrolidine-2-carboxylic Acid], the “reduction in affinity for nACE compared to omapatrilat” value on nACE [1] amounted to 10. Also, the values for the IC50 at nACE [1], on human NEP ectodomain [2] (setting [9]) and at cACE [3] were 0.019 ± 0.001 µM, 0.009 ± 0.003 µM and 0.0008 ± 0.0002 µM, respectively. Besides, the “selectivity for NEP over nACE” value at human NEP ectodomain [2] (from IC50 values) is given as 2 fold.
With `NCCCC[C@H](NC(=O)[C@@H](S)Cc1ccccc1)C(=O)N[C@@H](Cc1c[nH]c2ccccc12)C(=O)O` [AD016, ((S)-2-Mercapto-3-phenylpropanoyl)-L-lysyl-L-tryptophan], the “mode of inhibition of nACE” value on nACE [4] was “competitive inhibition”. In addition, the “mode of inhibition of cACE” value at cACE [5] is “non-competitive”. The “dissociation from cACE on jump dilution” value on cACE [6] was “remains tightly bound”. Further, on NEP, the “mode of inhibition of NEP” value is given as “competitive inhibition”. Moreover, the values for the concentration for half-maximal inhibition (IC50) on nACE [1], against human NEP ectodomain [2] (setting [9]) and at human NEP ectodomain [2] (5 μM MCA-[…](Dnp)-OH substrate) were 0.15 ± 0.02 µM, 1.2 ± 0.2 µM and 1 µM, respectively. Further, the “improved NEP inhibitory activity compared to LisW” value on human NEP ectodomain [2] (ratio of NEP IC50 values, LisW vs compound) is reported as “over 200 fold”. In addition, at cACE [3], the C-selectivity factor worked out at 21. For the same molecule, the “dissociation from nACE on jump dilution” value at nACE [7] is “dissociates from nACE when diluted”.
Broadly, the Ki is a measure of affinity in units of concentration, obtained from inhibition or displacement. Regarding `NCCCC[C@H](N[C@@H](CCc1ccccc1)C(=O)O)C(=O)N[C@@H](Cc1c[nH]c2ccccc12)C(=O)O` [LisW, Lisinopril-tryptophan], at human NEP ectodomain [8], the Ki is over 150 µM.
As to `O=C(N[C@H]1CCS[C@H]2CCC[C@@H](C(=O)O)N2C1=O)[C@@H](S)Cc1ccccc1` [Omapatrilat, reference compound], the IC50 on nACE [1] turned out to be 0.002 ± 0.0001 µM; at human NEP ectodomain [2] (setting [9]), 0.01 µM; at cACE [3] it was 0.001 ± 0.0001 µM. The “incidence of angioedema relative to enalapril” value in the series on patients is 3 fold.
